Test results from ChEMBL document CHEMBL3045180, “Synthesis of novel 4,6-diaryl-2-aminopyrimidines as potential antiplasmodial agents” (Med Chem Res, 2013).
In brackets after ≈: the same amount, converted by molar mass.

Key:
Plasmodium falciparum = test: Antiplasmodial activity against chloroquine-sensitive Plasmodium falciparum MRC 20 infected in human red blood cells measured up to 24 hr; type: functional, organism-based; details: MRC 20, 24 h
[1] = Haemolytic activity against Homo sapiens (human) RBC at >50 ug/ml up to 24 hr; type: ADME, cell-based; details: erythrocyte
[2] = Haemolytic activity against Homo sapiens (human) RBC at >25 ug/ml up to 24 hr; type: ADME, cell-based; details: erythrocyte
[3] = Haemolytic activity against Homo sapiens (human) RBC at >12.5 ug/ml up to 24 hr; type: ADME, cell-based; details: erythrocyte

| IC50 (Plasmodium falciparum) | SMILES | Activity [1] | Activity [2] | Activity [3] |
| --- | --- | --- | --- | --- |
| > 25 µg/mL | COc1cccc(-c2cc(-c3cc(OC)ccc3O)nc(N)n2)c1 | Toxic | – | – |
| 29.3 µg/mL (≈ 89.5 µM) | COc1ccc(O)c(-c2cc(-c3ccccc3Cl)nc(N)n2)c1 | Toxic | – | – |
| 9.53 µg/mL (≈ 29.1 µM) | COc1ccc(O)c(-c2cc(-c3cccc(Cl)c3)nc(N)n2)c1 | – | Toxic | – |
| 25.5 µg/mL (≈ 82 µM) | COc1ccc(O)c(-c2cc(-c3ccc(F)cc3)nc(N)n2)c1 | Toxic | – | – |
| 21.3 µg/mL (≈ 65.1 µM) | COc1ccc(-c2cc(-c3ccc(Cl)cc3)nc(N)n2)c(O)c1 | – | Toxic | – |
| 1.78 µg/mL (≈ 5.5 µM) | COc1ccc(-c2cc(-c3ccc(OC)cc3O)nc(N)n2)cc1 | – | – | Toxic |
| 15.2 µg/mL (≈ 49 µM) | COc1ccc(-c2cc(-c3ccc(F)cc3)nc(N)n2)c(O)c1 | Toxic | – | – |
| 8.71 µg/mL (≈ 28.3 µM) | COc1ccc(-c2cc(-c3ccc(C)cc3)nc(N)n2)c(O)c1 | – | Toxic | – |
| 7.61 µg/mL (≈ 19.1 µM) | COc1cccc(-c2cc(-c3ccc(OCc4ccccc4)cc3O)nc(N)n2)c1 | – | Toxic | – |

More lines, now with the values behind:

| SMILES | IC50 (Plasmodium falciparum) | Activity [1] | Activity [2] | Activity [3] |
| --- | --- | --- | --- | --- |
| Nc1nc(-c2ccc(OCc3ccccc3)cc2O)cc(-c2ccccc2Cl)n1 | 18.9 µg/mL (≈ 46.7 µM) | – | Toxic | – |
| Cc1ccc(-c2cc(-c3ccc(OCc4ccccc4)cc3O)nc(N)n2)cc1 | 14.9 µg/mL (≈ 38.8 µM) | – | Toxic | – |
| Cc1cccc(-c2cc(-c3ccc(OCc4ccccc4)cc3O)nc(N)n2)c1 | 35.6 µg/mL (≈ 92.7 µM) | – | Toxic | – |
| Nc1nc(-c2ccc(F)cc2)cc(-c2ccc(OCc3ccccc3)cc2O)n1 | 16.7 µg/mL (≈ 43 µM) | Toxic | – | – |
| COc1ccc(-c2cc(-c3ccc(OCc4ccccc4)cc3O)nc(N)n2)cc1OC | 1.61 µg/mL (≈ 3.75 µM) | – | – | Toxic |
| COc1ccc(-c2cc(-c3ccc(OCc4ccccc4)cc3O)nc(N)n2)cc1 | 5.01 µg/mL (≈ 12.5 µM) | – | Toxic | – |
| CCN(CC)CCCC(C)Nc1ccnc2cc(Cl)ccc12 (stereo not drawn) [CHLOROQUINE] | – | – | Toxic | – |
| C=C[C@H]1C[N@@]2CC[C@H]1C[C@H]2[C@H](O)c1ccnc2ccc(OC)cc12 [QUININE] | 29 µg/mL (≈ 89.4 µM) | – | Toxic | – |
